Measured values reported in patent publication US6344451B1, “Pyrrolobenzodiazepine carboxyamide vasopressin agonists” (American Home Products, priority 1999, dated 2002).

Molecular target: T1, Vasopressin V2 (Rattus norvegicus, UniProt Q00788)
T1 construct: Male or female normotensive Sprague-Dawley rats; from tissue; host or cells: whole living Sprague-Dawley rat (V2 receptors of the kidney collecting ducts)
Assay: Vasopressin V2 agonist effects of test compounds in normal conscious water-loaded rats
Type: in vivo
Settings: oral dose of 10 mg/Kg, urine collected for four hours, Sprague-Dawley (CD) rats; for Changes in Urinary Osmolality: osmolality changes expressed as percent of control; for Urine Volume (% decrease): percent decrease in urine volume vs. control
Description: Vasopressin V2 Agonist Effects of Test Compounds in Normal Conscious Water-Loaded Rats:
Male or female normotensive Sprague-Dawley rats (Charles River Laboratories, Inc., Kingston, N.Y.) of 350-500 g body weight were supplied with standard rodent diet (Purina Rodent Lab. Chow 5001) and water ad libitum. On the day of test, rats were placed individually into metabolic cages equipped with devices to separate the feces from the urine and containers for collection of urine. A test compound or a reference agent was given at an oral dose of 10 mg/Kg in a volume of 10 mL/Kg. The vehicle used was 20% dimethylsulfoxide (DMSO) in 2.5% preboiled corn starch. Thirty minutes after dosing the test compound, rats were gavaged with water at 30 mL/Kg into the stomach using a feeding needle. During the test, rats were not provided with water or food. Urine was collected for four hours after dosing of the test compound. At the end of four hours, urine volume was measured. Urinary osmolality was determined using a Fiske One-Ten Osmometer (Fiske Associates, Norwood, Mass., 02062) or an Advanced CRYOMATIC Osmometer, Model 3C2 (Advanced Instruments, Norwood, Mass.). Determinations of Na^+, K^+ and Cl^− ion were carried out using ion specific electrodes in a Beckman SYNCHRON EL-ISE Electrolyte System analyzer. The urinary osmolality should increase proportionally. In the screening test, two rats were used for each compound. If the difference in the urine volume of the two rats was greater than 50%, a third rat was used.

T1 sequence (Q00788 whole entry): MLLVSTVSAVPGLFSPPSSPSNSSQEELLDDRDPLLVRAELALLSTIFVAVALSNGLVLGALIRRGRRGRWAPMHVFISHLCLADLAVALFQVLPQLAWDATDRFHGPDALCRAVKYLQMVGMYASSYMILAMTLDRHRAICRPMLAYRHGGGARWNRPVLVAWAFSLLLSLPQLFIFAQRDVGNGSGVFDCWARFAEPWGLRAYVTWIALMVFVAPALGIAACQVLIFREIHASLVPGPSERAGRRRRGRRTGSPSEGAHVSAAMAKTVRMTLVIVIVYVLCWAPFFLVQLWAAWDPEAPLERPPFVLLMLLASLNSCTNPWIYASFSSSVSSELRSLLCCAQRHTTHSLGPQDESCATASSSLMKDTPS

Cn1ccc2cc(C(=O)N3Cc4cccn4Cc4ccccc43)ccc21 [Example 1, (5H-10,11-Dihydro-pyrrolo [2,1-c][1,4]benzodiazepin-10-yl)-(1-methyl-1H-indol-5-yl)-methanone]
Changes in Urinary Osmolality: 174% of control | Urine Volume (% decrease): 66 % decrease

O=C(c1ccc2c(c1)OCO2)N1Cc2cccn2Cc2ccccc21 [Example 2, Benzo[1,3]dioxol-5-yl-(5H-10,11-dihydro-pyrrolo [2,1-c][1,4]benzodiazepin-10-yl)-methanone]
Changes in Urinary Osmolality: 41% of control | Urine Volume (% decrease): 23 % decrease

O=C(c1ccc2c(c1)CCO2)N1Cc2cccn2Cc2ccccc21 [Example 3, (2,3-Dihvdro-benzofuran-5-yl)-(5H-10.11-dihydro-pyrrolo [2,1-c][1,4]benzodiazepin-10-yl)-methanone]
Changes in Urinary Osmolality: 10% of control | Urine Volume (% decrease): 32 % decrease

O=C(c1ccc2ncsc2c1)N1Cc2cccn2Cc2ccccc21 [Example 4, (Benzothiazol-6-yl)-(5H-10,11-dihydro-pyrrolo[2,1-c][1,4]benzodiazepin-10-yl)-methanone]
Changes in Urinary Osmolality: 3% of control | Urine Volume (% decrease): 19 % decrease
